# Experiments:
# [1] = The drug is tested on Z-011 corresponding to mouse gut metagenome with ENA study accession number: PRJEB37062 and ENA sample accession number: ERS12561811 for biotransformation under anaerobic condition. The drug concentrations were measured over 9 timepoints collected between 0 and 24 hours of incubation by liquid-chromatography-coupled mass spectrometry (LC–MS); conditions: 2 µM
# [2] = The drug is tested on WLS-006 corresponding to human gut metagenome with ENA study accession number: PRJEB37062 and ENA sample accession number: ERS12561741 for biotransformation under anaerobic condition. The drug concentrations were measured over 9 timepoints collected between 0 and 24 hours of incubation by liquid-chromatography-coupled mass spectrometry (LC–MS); conditions: 2 µM
# [3] = human gut metagenome, 24 h, 2 µM
# [4] = human gut metagenome, 24 h, 2 µM; remark: listed apart in the source
# [5] = human gut metagenome, 24 h, 2 µM; remark: listed apart in the source
# [6] = human gut metagenome, 24 h, 2 µM; remark: listed apart in the source
# [7] = The drug is tested on Z-024 corresponding to pig gut metagenome with ENA study accession number: PRJEB37062 and ENA sample accession number: ERS12561823 for biotransformation under anaerobic condition. The drug concentrations were measured over 9 timepoints collected between 0 and 24 hours of incubation by liquid-chromatography-coupled mass spectrometry (LC–MS); conditions: 2 µM
# [8] = The drug is tested on Z-030 corresponding to mouse gut metagenome with ENA study accession number: PRJEB37062 and ENA sample accession number: ERS12561829 for biotransformation under anaerobic condition. The drug concentrations were measured over 9 timepoints collected between 0 and 24 hours of incubation by liquid-chromatography-coupled mass spectrometry (LC–MS); conditions: 2 µM
# [9] = The drug is tested on WLS-069 corresponding to human gut metagenome with ENA study accession number: PRJEB37062 and ENA sample accession number: ERS12561748 for biotransformation under anaerobic condition. The drug concentrations were measured over 9 timepoints collected between 0 and 24 hours of incubation by liquid-chromatography-coupled mass spectrometry (LC–MS); conditions: 2 µM
# [10] = human gut metagenome, 24 h, 2 µM; remark: listed apart in the source
# [11] = The drug is tested on WLS-010 corresponding to human gut metagenome with ENA study accession number: PRJEB37062 and ENA sample accession number: ERS12561743 for biotransformation under anaerobic condition. The drug concentrations were measured over 9 timepoints collected between 0 and 24 hours of incubation by liquid-chromatography-coupled mass spectrometry (LC–MS); conditions: 2 µM
# [12] = The drug is tested on Z-026 corresponding to metagenome with ENA study accession number: PRJEB37062 and ENA sample accession number: ERS12561825 for biotransformation under anaerobic condition. The drug concentrations were measured over 9 timepoints collected between 0 and 24 hours of incubation by liquid-chromatography-coupled mass spectrometry (LC–MS); conditions: 2 µM
# [13] = The drug is tested on WLS-077 corresponding to human gut metagenome with ENA study accession number: PRJEB37062 and ENA sample accession number: ERS12561750 for biotransformation under anaerobic condition. The drug concentrations were measured over 9 timepoints collected between 0 and 24 hours of incubation by liquid-chromatography-coupled mass spectrometry (LC–MS); conditions: 2 µM
# [14] = The drug is tested on Z-012 corresponding to metagenome with ENA study accession number: PRJEB37062 and ENA sample accession number: ERS12561812 for biotransformation under anaerobic condition. The drug concentrations were measured over 9 timepoints collected between 0 and 24 hours of incubation by liquid-chromatography-coupled mass spectrometry (LC–MS); conditions: 2 µM
# [15] = human gut metagenome, 24 h, 2 µM; remark: listed apart in the source
# [16] = The drug is tested on WLS-098 corresponding to human gut metagenome with ENA study accession number: PRJEB37062 and ENA sample accession number: ERS12561754 for biotransformation under anaerobic condition. The drug concentrations were measured over 9 timepoints collected between 0 and 24 hours of incubation by liquid-chromatography-coupled mass spectrometry (LC–MS); conditions: 2 µM
# [17] = human gut metagenome, 24 h, 2 µM; remark: listed apart in the source
# [18] = The drug is tested on Z-016 corresponding to mouse gut metagenome with ENA study accession number: PRJEB37062 and ENA sample accession number: ERS12561815 for biotransformation under anaerobic condition. The drug concentrations were measured over 9 timepoints collected between 0 and 24 hours of incubation by liquid-chromatography-coupled mass spectrometry (LC–MS); conditions: 2 µM
# [19] = The drug is tested on Z-014 corresponding to rat gut metagenome with ENA study accession number: PRJEB37062 and ENA sample accession number: ERS12561814 for biotransformation under anaerobic condition. The drug concentrations were measured over 9 timepoints collected between 0 and 24 hours of incubation by liquid-chromatography-coupled mass spectrometry (LC–MS); conditions: 2 µM
# [20] = human gut metagenome, 24 h, 2 µM; remark: listed apart in the source
# Also: call rule not given here.
Structure (SMILES),Bacterial Biotransformation [1],Bacterial Biotransformation [2],Bacterial Biotransformation [3],Bacterial Biotransformation [4],Bacterial Biotransformation [5],Bacterial Biotransformation [6],Bacterial Biotransformation [7],Bacterial Biotransformation [8],Bacterial Biotransformation [9],Bacterial Biotransformation [10],Bacterial Biotransformation [11],Bacterial Biotransformation [12],Bacterial Biotransformation [13],Bacterial Biotransformation [14],Bacterial Biotransformation [15],Bacterial Biotransformation [16],Bacterial Biotransformation [17],Bacterial Biotransformation [18],Bacterial Biotransformation [19],Bacterial Biotransformation [20]
C#C[C@]1(OC(C)=O)CC[C@H]2[C@@H]3CCC4=C[C@@H](OC(C)=O)CC[C@@H]4[C@H]3CC[C@@]21C [ETHYNODIOL DIACETATE],Compound metabolized,Compound metabolized,Compound metabolized,Compound NOT metabolized,Compound metabolized,Compound metabolized,Compound metabolized,Compound metabolized,Compound metabolized,Compound metabolized,Compound metabolized,Compound metabolized,Compound metabolized,Compound metabolized,Compound metabolized,Compound metabolized,Compound metabolized,Compound metabolized,Compound metabolized,–
C=CC[C@@H]1/C=C(\C)C[C@H](C)C[C@H](OC)[C@H]2O[C@@](O)(C(=O)C(=O)N3CCCC[C@H]3C(=O)O[C@H](/C(C)=C/[C@@H]3CC[C@@H](O)[C@H](OC)C3)[C@H](C)[C@@H](O)CC1=O)[C@H](C)C[C@@H]2OC.O [TACROLIMUS],Compound NOT metabolized,Compound metabolized,Compound metabolized,Compound metabolized,Compound metabolized,Compound metabolized,Compound NOT metabolized,Compound NOT metabolized,Compound metabolized,Compound metabolized,Compound metabolized,Compound NOT metabolized,Compound metabolized,Compound NOT metabolized,Compound metabolized,Compound NOT metabolized,Compound metabolized,Compound NOT metabolized,Compound NOT metabolized,Compound metabolized
CC(=O)SCC(Cc1ccccc1)C(=O)NCC(=O)OCc1ccccc1 (stereo unspecified) [RACECADOTRIL],Compound metabolized,–,–,–,–,–,Compound metabolized,Compound metabolized,–,–,–,Compound metabolized,–,Compound metabolized,–,–,–,Compound metabolized,Compound metabolized,–
O=C1CCc2ccc(OCCCCN3CCN(c4cccc(Cl)c4Cl)CC3)cc2N1 [ARIPIPRAZOLE],Compound NOT metabolized,–,–,–,–,–,Compound metabolized,Compound NOT metabolized,–,–,–,Compound metabolized,–,Compound NOT metabolized,–,–,–,Compound metabolized,Compound metabolized,–
CC1=C(CC(=O)O)c2cc(F)ccc2/C1=C\c1ccc([S+](C)[O-])cc1 (stereo unspecified),Compound NOT metabolized,Compound metabolized,Compound metabolized,–,Compound metabolized,Compound metabolized,Compound metabolized,Compound metabolized,Compound metabolized,Compound metabolized,Compound metabolized,Compound metabolized,Compound metabolized,Compound NOT metabolized,Compound metabolized,Compound metabolized,Compound metabolized,Compound NOT metabolized,Compound NOT metabolized,Compound metabolized
CN(C/C=C/C#CC(C)(C)C)Cc1cccc2ccccc12 [TERBINAFINE],Compound NOT metabolized,–,Compound NOT metabolized,Compound NOT metabolized,Compound NOT metabolized,Compound NOT metabolized,Compound NOT metabolized,Compound NOT metabolized,–,Compound NOT metabolized,–,Compound NOT metabolized,–,Compound NOT metabolized,Compound NOT metabolized,Compound NOT metabolized,Compound metabolized,Compound NOT metabolized,Compound NOT metabolized,Compound NOT metabolized
N#Cc1ccc2[nH]cc(CCCCN3CCN(c4ccc5oc(C(N)=O)cc5c4)CC3)c2c1 [VILAZODONE],Compound metabolized,Compound metabolized,Compound metabolized,Compound NOT metabolized,Compound metabolized,–,Compound metabolized,Compound metabolized,–,Compound metabolized,Compound metabolized,Compound NOT metabolized,Compound metabolized,Compound NOT metabolized,Compound metabolized,Compound metabolized,Compound metabolized,Compound metabolized,Compound NOT metabolized,Compound metabolized

# Source: ChEMBL document CHEMBL5724914, “Linking interpersonal differences in gut microbiota composition and drug biotransformation activity” (2024)
